For orientation: Kd means the constant that tells how readily two partners part at equilibrium. For orientation: EC50 means the concentration that produces a half-maximal response. The inhibition is the change of the read-out against control, counted positive when it falls. In general, CC50 refers to the concentration at which the toxic effect on the cells reaches its halfway point.

Data on five compounds can be found in PMC9293725 (Computational and Structural Biotechnology Journal, 2022).

For data set [1] the following is noted: cited from earlier work.
For the next data set, the target named is PfCDPK1. Conditions: read-out: KD PfCDPK1; cited from earlier work.
Data set [2] has as its system P. falciparum 3D7 (chloroquine-sensitive). Nature of the data set: In vitro P. falciparum growth inhibition. Format: cell-based. As to conditions: Plasmodium falciparum; for EC50: 3D7, 72 h, read-out: EC50 Pf3D7; for inhibition at 5 µM: 3D7, read-out: inhibition of parasite growth.
Data set [3] concerns P. falciparum Dd2 (multidrug-resistant). The experiment in a line: In vitro P. falciparum growth inhibition. It counts as cell-based. As to conditions: Plasmodium falciparum, DD2, 72 h, read-out: EC50 PfDd2.
Data set [4] in a line: Cytotoxicity, MTT reduction method, COS-7. Format: cell-based. As to conditions: monkey, COS-7 cells. In general terms: Tetrazolium assays rely on reduction of a dye to a coloured formazan, in cell work by metabolically active cells.
A short description of data set [5]: Cytotoxicity, MTT reduction method, HepG2. It counts as cell-based. As to conditions: human, HepG2 cells.

For the compound `CS(=O)(=O)c1ccc(-c2cnc(N)c(-c3ccc(C(F)(F)F)nc3)c2)cc1` [MMV390048], in data set [1], the “solubility (in words)” value is “poor solubility”.

Regarding `Cc1cn(-c2cc(NC(=O)c3ccc(C)c(Nc4nccc(-c5cccnc5)n4)c3)cc(C(F)(F)F)c2)cn1` [Nilotinib], the Kd at PfCDPK1 was 0.79 µM.

Take `COc1ccc(-c2c(C)nn3c(NCCN4CCOCC4)cc(C)nc23)cc1OC` [(6), 3-(3,4-dimethoxyphenyl)-2,5-dimethyl-N-(2-morpholin-4-ylethyl)pyrazolo[1,5-a]pyrimidin-7-amine]: the concentration giving a half-maximal response (EC50) in data set [2] came to 13.8 ± 3.8 µM; in data set [3], 17.9 ± 5.3 µM. Further, the inhibition at 5 µM in data set [2] is > 30%.

Regarding `CCN(CC)CCCC(C)Nc1ccnc2cc(Cl)ccc12` (stereo not drawn) [Chloroquine, reference compound], the EC50 is 0.009 µM in data set [2] and 0.057 µM in data set [3].

For the compound `O=C1Nc2ccccc2C1=Cc1ccc[nH]1` [(3), 3-(1H-pyrrol-2-ylmethylidene)-1H-indol-2-one], the EC50 in data set [2] stood at 10.3 ± 1.3 µM; in data set [3] it was 9.8 ± 1.1 µM. For the same compound, the inhibition at 5 µM in data set [2] was > 30%. Besides, the results for the CC50 at 72 h in data set [4] and in data set [5] were 32.8 ± 10.8 µM and 13.5 ± 7.6 µM, respectively.
